Reference: patent US20070054887A1, “Methods for treating bladder dysfunction” (BioXell S.p.A, priority 2003, published 2007)
Several values for one entry are separate records, joined by “and”; a condition that tells them apart may be missing. Equal entries are not always repeated.

Experiments:
hBC = assay: androgen-stimulated hBC growth, 48 h incubation; format: cell-based, human; settings: DHT 10 nM, Compound A 1 nM, finasteride 1 nM, FIG. 5
Excerpt: Results are expressed as percentage variation (mean±SEM) over their relative controls and derived from at least three different experiments obtained from three distinct hBC cell preparations. *P<0.05 (vs. control); °P<0.01 (vs. androgen-treated cells).

BPH cells = settings: previously found, cited from earlier work; for BPH cell proliferation: also counteracted mitogenic activity of KGF and IGFI
human bladder cells = assay: inhibition of basal human bladder cell growth; format: cell-based
[1] = system: rats with CYP-induced cystitis; assay: cyclophosphamide (CYP) induced chronic cystitis in rats: conscious cystometry; format: in vivo, Wistar rats; design: amplitude of NVBC (amplitude of non-voiding bladder contraction): unit not given here
Excerpt: The rat model of chemical cystitis induced by intraperitoneal injection of CYP has been well accepted. CYP is used in clinical practice in the treatment of a number of malignant tumors. One of its metabolites, acrolein, is excreted in urine in large concentrations causing hemorrhagic cystitis associated with symptoms of urinary frequency, urgency and pelvic pain. The inflammatory process is characterized by changes in gross histology of bladder, increase in number and distribution of inflammatory cell infiltrates (mast cells, macrophage, PMNs), cyclo-oxygenase-2 expression and prostaglandin production, growth factor and cytokine production. The rat model of chemical cystitis closely resembles interstitial cystitis, a chronic, painful urinary bladder syndrome and has been used for the testing of therapeutic agents in the past.
This model was used to test the effects of 1,25-dihydroxyvitamin D3 analogue in rats with CYP-induced cystitis. The effects of the treatment on the cystometric parameters in a conscious freely moving rat with CYP-induced cystitis were monitored. The following cystometric parameters were recorded in each animal:
Animals: Wistar rats weighing 125-175 g were used. […] Following recovery all animals received three intraperitoneal injections of CYP and subsequently were divided into the treatment and sham control groups.
Treatment group: Rats treated with oral 1,25-dihydroxyvitamin D3 analogue 1,3-di-O-acetyl-1,25-dihydroxy-16,23Z-diene-26,27-hexafluoro-19-nor-cholecalciferol (“Compound C”) for 14 days (daily dose of 0.1 μg/kg) [drawing 138]
Cystometry was performed 24 hours following the last dose of the drug or vehiculum on awake freely moving animals.
A lower midline abdominal incision was performed under general inhalation anesthesia (isoflurine with O2) and polyethylene tubing (PE-50, Clay Adams, Parsippany, N.J.) with the end flared by heat was inserted into the dome of the bladder and secured in place with a 6-0 prolene purse string suture. The distal end of the tubing was heat-sealed, tunneled subcutaneously and externalized at the back of the neck, out of the animal's reach. Abdominal and neck incisions were closed with 4-0 nylon sutures.
Following recovery (5 days) subject animals underwent three intraperitoneal injections of CYP (Sigma Chemical, St. Louis, Mo.; 75 mg/kg each, intraperitoneal) over the period of nine days. On the tenth day following the first CYP injection the sham control animals received the vehicle only, whereas the experimental group were treated with the 1,25-dihydroxyvitamin D3 analogue 1,3-di-O-acetyl-1,25-dihydroxy-16,23Z-diene-26,27-hexafluoro-19-nor-cholecalciferol “Compound C” (delivered using gavage). Two weeks following the initiation of the treatment animals underwent a conscious cystometrogram to assess the function of the urinary bladder.
An animal was placed unrestrained in a cage and the catheter was connected via a T-tube to a pressure transducer (Grass® Model PT300, West Warwick, R.I.) and microinjection pump (Harvard Apparatus 22, South Natick, Mass.). A 0.9% saline solution was infused at room temperature into the bladder at a rate of 10 ml/h. Intravesical pressure was recorded continuously using a Neurodata Acquisition System (Grass® Model 15, Astro-Med, Inc, West Warwick, R.I.). At least three reproducible micturition cycles were recorded after the initial stabilization period of 25-30 min.

[2] = maximum tolerated dose (MTD) in rats; format: in vivo; settings: rat, in vivo, read-out: MTD
Excerpt: The maximum tolerated dose (MTD) in rats is also listed for each compound.

[3] = drug treated animals versus vehicle, 0.1 μg/kg oral 14 days
[4] = oral 0.1 μg/kg daily for 14 days, individual rats, three micturition cycles each

**Q.** Which “hBC proliferation stimulated by the androgen DHT” value (hBC) does the source give for `CC(C)(C)NC(=O)[C@H]1CC[C@H]2[C@@H]3CC[C@H]4NC(=O)C=C[C@]4(C)[C@H]3CC[C@]12C` [finasteride, reference compound] here?
**A.** no significant effect

**Q.** With `C=C1/C(=C\C=C2/CCC[C@]3(C)C([C@H](C)CC#CC(C)(C)O)=CC[C@@H]23)C[C@@H](O)C[C@@H]1O` [Compound B, 1,25-dihydroxy-16-ene-23-yne cholecalciferol] as the compound, how does the BPH cell proliferation (BPH cells) read?
**A.** inhibited

**Q.** And the “apoptosis in BPH cells” value (BPH cells; unstimulated and KGF-stimulated BPH cells)?
**A.** induced

**Q.** And the “inhibition of bladder cell growth” value (human bladder cells; stimulated and basal bladder cell growth, FIG. 4, in some cases significantly greater than anti-androgens such as finasteride)?
**A.** demonstrated

**Q.** With `C=C1CC[C@H](O)C/C1=C/C=C1\CCC[C@]2(C)[C@@H]([C@H](C)CCCC(C)C)CC[C@@H]12` [vitamin D3, reference compound] as the compound, how does the BPH cell proliferation (BPH cells) read?
**A.** inhibited

**Q.** For `CC(=O)OC1C/C(=C/C=C2\CCC[C@]3(C)C(C(C)C/C=C\C(O)(C(F)(F)F)C(F)(F)F)=CCC23)C[C@@H](OC(C)=O)C1` (stereo partly drawn) [Compound C, 1,3-di-O-acetyl-1,25-dihydroxy-16,23Z-diene-26,27-hexafluoro-19-nor-cholecalciferol], which “amplitude of non-voiding bladder contractions, change versus control” value [1, 3] is on record?
**A.** Dramatic reductions

**Q.** And the “bladder capacity, change versus control” value [1, 3]?
**A.** did not result in a change

**Q.** What about the “filling pressure, change versus control” value [1, 3] of the same compound?
**A.** statistically significant reductions

**Q.** And the “number of non-voiding bladder contractions, change versus control” value [1, 3]?
**A.** Dramatic reductions

**Q.** What about the “threshold pressure, change versus control” value [1, 3] of the same compound?
**A.** statistically significant reductions

**Q.** What about the “Bl. Cap. (bladder capacity)” value ([1]; oral 0.1 μg/kg daily for 14 days, individual rats RB7, RB13, RB15, three micturition cycles each) of the same compound?
**A.** 1.9 ml and 1.3 ml (2×) and 2.5 ml and 1.5 ml and 0.7 ml (2×) and 0.8 ml and 1.4 ml

**Q.** What about the “# of NVBC (number of non-voiding bladder contractions)” value [1, 4] of the same compound?
**A.** 4 and 8 (2×) and 0 (6×)

**Q.** And the “FP (filling pressure)” value [1, 4]?
**A.** 15 cmH2O and 14 cmH2O (3×) and 12 cmH2O and 11 cmH2O and 10 cmH2O and 13 cmH2O (2×)

**Q.** What about the “MP (micturition pressure)” value [1, 4] of the same compound?
**A.** 105 cmH2O and 97 cmH2O (2×) and 90 cmH2O and 100 cmH2O and 108 cmH2O and 98 cmH2O and 101 cmH2O and 104 cmH2O

**Q.** What about the “TP (threshold pressure)” value [1, 4] of the same compound?
**A.** 16 cmH2O and 17 cmH2O and 14 cmH2O (4×) and 12 cmH2O and 11 cmH2O and 15 cmH2O

**Q.** And the “amplitude of NVBC (amplitude of non-voiding bladder contraction)” value [1, 4]?
**A.** 10 and 11 (2×) and 0 (6×)

**Q.** What about the MTD [2] of the same compound?
**A.** 0.1 µg/kg

**Q.** What about the IC50 (human bladder cells; Homo sapiens) of the same compound?
**A.** 39.8 nM
